From patent US5374733A, “Sweetening agent derived from L-aspartic or L-glutamic acid” (priority 1989, dated 1994)
Peptide text beside a SMILES is read from it.

assay: not given; settings: JP-A-87-252754, text; by comparison with a 5% solution of sucrose; cited from earlier work

Structure (SMILES) | sweetening potency (SP)
N#Cc1ccc(NC(=O)[C@H](CC(=O)O)NC(=O)c2ccccc2)cc1 [compound (3)] | 720 times that of sucrose

same assay, conditions: Table 1, JP-A-87-252754; by comparison with a 5% solution of sucrose; cited from earlier work

Structure (SMILES) | SP
N#Cc1ccc(NC(=O)[C@H](CC(=O)O)NC(=O)c2ccccc2)cc1 [compound (3)] | 720 times that of sucrose

same assay, conditions: Table 2, EP-A-0.338.946; sucrose concentration not stated; cited from earlier work

Structure (SMILES) | SP
CCCCCN[C@@H](CCC(=O)O)C(=O)Nc1ccc(C#N)cc1 [CH3 (CH2)3 CH2/2/4-CN--C6 H4] | 1500
CCCCCCCN[C@@H](CCC(=O)O)C(=O)Nc1ccc(C#N)nc1 [CH3 (CH2)5 CH2/2/2-CN-pyrid-5-yl] | 4000
N#Cc1ccc(NC(=O)[C@H](CC(=O)O)NCc2ccccc2)cc1 [compound (4)] | 1000
CC(C)CCN[C@@H](CC(=O)O)C(=O)Nc1ccc(C#N)cc1 [(CH3)2 CHCH2 CH2/1/4-CN--C6 H4] | 100
CCCCCN[C@@H](CC(=O)O)C(=O)Nc1ccc(C#N)cc1 [CH3 (CH2)3 CH2/1/4-CN--C6 H4] | 300
N#Cc1ccc(NC(=O)[C@H](CCC(=O)O)NCCc2ccccc2)cc1 [C6 H5 CH2 CH2/2/4-CN--C6 H4] | 300

same assay, conditions: prior art and aspartame; sucrose concentration not given; cited from earlier work

Structure (SMILES) | sweetening potency
N#Cc1ccc(NC(=O)[C@H](CC(=O)O)NC=O)cc1 [compound (2), reference compound] | 40 times that of sucrose
N#Cc1ccc(NC(=O)[C@H](CC(=O)O)NC(=O)C(F)(F)F)cc1 [compound (1)] | 3000 times that of sucrose
COC(=O)[C@H](Cc1ccccc1)NC(=O)[C@@H](N)CC(=O)O [aspartame, reference compound] (H-Asp-Phe-OMe) | 180 times that of sucrose
N#Cc1ccc(NC(=O)[C@H](CC(=O)O)NC(=O)c2ccccc2)cc1 [compound (3)] | 720 times that of sucrose
O=C(O)C[C@H](NC(=O)C(Cl)(Cl)Cl)C(=O)Nc1cccnc1 [Y=H, X=CCl3 CO] | 1 times that of sucrose
N#Cc1ccc(NC(=O)[C@H](CC(=O)O)NCc2ccccc2)cc1 [compound (4)] | 1000 times that of sucrose

same assay, conditions: prior art; by comparison with a 2% solution of sucrose; cited from earlier work

Structure (SMILES) | sweetening potency
N#Cc1ccc(NC(=O)[C@H](CC(=O)O)NC(=O)C(F)(F)F)cc1 [compound (1)] | 3000 times that of sucrose

assay: Sweetening potency: taste comparison by a team of eight experienced people with a sucrose reference solution; settings: Table 3; weight basis, compared with a 2% aqueous solution of sucrose
Procedure: The sweetening potency of the compounds described in the Examples was evaluated by a team of eight experienced people. This is done by comparing the taste of the compounds, in aqueous solution at variable concentrations, with a 2%, 5 % or 10 % reference solution of sucrose. The sweetening potency of the test compound compared with sucrose then corresponds to the weight ratio between the compound and sucrose for equal sweetening intensity, i.e. when the sweet tastes of the solution of the test compound and the reference solution of sucrose are considered, by a majority of people, to have the same sweetening intensity.
Summary Table 3 below gives, by way of examples, a list of a few compounds obtained by experimental protocols similar to those described above, which those skilled in the art will easily find, together with their relative sweetening potency (SP), evaluated on a weight basis, compared with a 2% aqueous solution of sucrose. When the groups R1, R2 and R3 are different, the configuration of the asymmetric carbon to which they are bonded (carbon marked with an asterisk) is designated according to the conventional rules of stereochemistry using the R/S system: R, S or, when both configurations coexist in the same compound, RS.

Structure (SMILES) | SP (relative sweetening potency)
CCCC[C@H](C)C(=O)N[C@@H](CCC(=O)O)C(=O)Nc1ccc(C#N)cc1 [Example 4, N-[(S)-2-methylhexanoyl]-alpha-L-glutamyl-4-aminophenylcarbonitrile] | 9000

same assay, conditions: weight basis, by comparison with a 2% solution of sucrose

Structure (SMILES) | sweetening potency
CCCC[C@H](C)C(=O)N[C@@H](CCC(=O)O)C(=O)Nc1ccc(C#N)cc1 [Example 4, N-[(S)-2-methylhexanoyl]-alpha-L-glutamyl-4-aminophenylcarbonitrile] | ~9000 times that of sucrose

assay: Stability: accelerated ageing in aqueous solution at pH 3 and 70° C., remaining product by HPLC (half-life); assay type: physicochemical; settings: accelerated ageing, pH 3, 70° C.
Procedure: The stability of the compounds of the invention, in particular those containing the L-glutamyl residue, is very high and can in certain cases be about three hundred times greater than that of the compounds of the prior art.
The stability of the compounds of the prior art and those of the invention is measured using high performance liquid chromatography to determine the amount of product remaining after accelerated ageing in an acid medium (phosphate buffer at pH 3) and at high temperature (70° C.). Under these experimental conditions, measurement of the half-life (time corresponding to 50% degradation) makes it possible to evaluate the potential stability of the compounds tested in this way. A compound of low stability will have a very short half-life of only a few hours, whereas a very stable compound will have a half-life of several tens of days, as is the case, for example, of compounds (5) and (6) of the invention, which have a half-life of about 60 days (FIG. 1).

Structure (SMILES) | stability (in words) | half-life
CCCCC(C)(C)C(=O)N[C@@H](CCC(=O)O)C(=O)Nc1ccc(C#N)nc1 [Example 2, N-(2,2-dimethylhexanoyl)-alpha-L-glutamyl-5-aminopyridine-2-carbonitrile] | excellent | –
CCCC[C@H](C)C(=O)N[C@@H](CCC(=O)O)C(=O)Nc1ccc(C#N)nc1 [(5)] | high stability | –
COC(=O)[C@H](Cc1ccccc1)NC(=O)[C@@H](N)CC(=O)O [aspartame, reference compound] (H-Asp-Phe-OMe) | relatively low stability | –
CCCC[C@H](C)C(=O)N[C@@H](CCC(=O)O)C(=O)Nc1ccc(C#N)cc1 [Example 4, N-[(S)-2-methylhexanoyl]-alpha-L-glutamyl-4-aminophenylcarbonitrile] | excellent | –
CCCC[C@H](C)C(=O)N[C@@H](CCC(=O)O)C(=O)Nc1ccc(C#N)nc1 [Example 1, N-[(S)-2-methylhexanoyl]-alpha-L-glutamyl-5-aminopyridine-2-carbonitrile] | excellent | about 60 days
C[C@@H](Oc1ccccc1)C(=O)N[C@@H](CCC(=O)O)C(=O)Nc1ccc(C#N)nc1 [Example 3, N-[(R)-2-phenoxypropanoyl]-alpha-L-glutamyl-5-aminopyridine-2-carbonitrile] | very high | –

same assay, conditions: phosphate buffer, pH 3, accelerated ageing, pH 3, 70° C.; prior art compounds; read-out: half-life (converted)

Structure (SMILES) | half-life [h]
N#Cc1ccc(NC(=O)[C@H](CC(=O)O)NC=O)cc1 [compound (2), reference compound] | ~20
N#Cc1ccc(NC(=O)[C@H](CC(=O)O)NC(=O)C(F)(F)F)cc1 [compound (1)] | ~15
N#Cc1ccc(NC(=O)[C@H](CC(=O)O)NC(=O)c2ccccc2)cc1 [compound (3)] | ~8

same assay, conditions: phosphate buffer, pH 3, accelerated ageing, pH 3, 70° C.; read-out: half-life (converted)

Structure (SMILES) | half-life [h]
CCCCC(C)(C)C(=O)N[C@@H](CCC(=O)O)C(=O)Nc1ccc(C#N)nc1 [Example 2, N-(2,2-dimethylhexanoyl)-alpha-L-glutamyl-5-aminopyridine-2-carbonitrile] | ~1680
CCCC[C@H](C)C(=O)N[C@@H](CCC(=O)O)C(=O)Nc1ccc(C#N)nc1 [(5)] | ~1440
COC(=O)[C@H](Cc1ccccc1)NC(=O)[C@@H](N)CC(=O)O [aspartame, reference compound] (H-Asp-Phe-OMe) | 24
CCCC[C@H](C)C(=O)N[C@@H](CCC(=O)O)C(=O)Nc1ccc(C#N)cc1 [Example 4, N-[(S)-2-methylhexanoyl]-alpha-L-glutamyl-4-aminophenylcarbonitrile] | > 1440
C[C@@H](Oc1ccccc1)C(=O)N[C@@H](CCC(=O)O)C(=O)Nc1ccc(C#N)nc1 [Example 3, N-[(R)-2-phenoxypropanoyl]-alpha-L-glutamyl-5-aminopyridine-2-carbonitrile] | ~1440
N#Cc1ccc(NC(=O)[C@H](CC(=O)O)NCc2ccccc2)cc1 [compound (4)] | ~48
